Among the data in PubChem BioAssay (NCI) are GI50 and TGI values, retold here.

Values joined by “and” are separate entries in the source; they are usually repeats but may differ in a detail not shown here. Equal entries are not always repeated.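 Five concentrations, 48 hours, 96-well plates. At the GI50, growth is halved. At the TGI there is no net growth.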

Some test systems named below: UACC-257 melanoma; SK-MEL-28 melanoma; M14 melanoma; NCI-H522 lung; A549 NSCLC; MALME-3M melanoma; HOP-92 NSCLC; PC-3 prostate; KM12 colon; UACC-62 melanoma.
What all share (assay): NCI-60 cell line screen, 48 h

In the case of `COC(=O)Nc1nc2ccc(C(=O)c3cccs3)cc2[nH]1`, the GI50 in the assay on UACC-257 melanoma was greater than 100 µM; in the assay with SK-MEL-28 melanoma it was 0.376 µM; in the assay with M14 melanoma, 0.0797 µM; in the assay with NCI-H522 lung, 0.0139 µM and 0.107 µM; in the assay with A549 NSCLC, 0.239 µM; with MALME-3M melanoma, 0.296 µM. Further, the GI50 in the assay with HOP-92 NSCLC was greater than 100 µM; in the assay with PC-3 prostate it was 0.246 µM; in the assay on KM12 colon it was 0.0541 µM; in the assay with UACC-62 melanoma it was 0.189 µM. For the same molecule, the TGI with UACC-257 melanoma is greater than 100 µM; in the assay with SK-MEL-28 melanoma, 61.8 µM and > 100 µM; in the assay on M14 melanoma, 2.79 µM and 0.432 µM; in the assay with NCI-H522 lung, 0.0606 µM; in the assay with A549 NSCLC it was 55.8 µM and > 100 µM; in the assay on MALME-3M melanoma, 43.5 µM and > 100 µM. For the same molecule, the TGI with PC-3 prostate is 14.2 µM and > 100 µM; in the assay on KM12 colon, 41 µM and > 100 µM; with UACC-62 melanoma, 65.4 µM and > 100 µM.

On to `CC(C)OP(=O)(OC(C)C)/C(C#N)=C/c1c[nH]c2ccccc12`, for which the TGI with UACC-257 melanoma, in the assay with SK-MEL-28 melanoma, in the assay with M14 melanoma, in the assay with NCI-H522 lung, in the assay with A549 NSCLC and with MALME-3M melanoma was greater than 100 µM each time. The TGI with HOP-92 NSCLC, in the assay with PC-3 prostate, in the assay on KM12 colon and in the assay on UACC-62 melanoma was greater than 100 µM throughout.

On to `O=C1/C(=C/c2ccc(O)cc2)Oc2ccccc21`, for which the TGI is greater than 100 µM in the assay on UACC-257 melanoma; greater than 100 µM with SK-MEL-28 melanoma; greater than 100 µM in the assay on M14 melanoma; 62 µM with NCI-H522 lung; greater than 100 µM in the assay with A549 NSCLC; greater than 100 µM in the assay with MALME-3M melanoma. Besides, the TGI in the assay on HOP-92 NSCLC, with PC-3 prostate, in the assay on KM12 colon and in the assay with UACC-62 melanoma was greater than 100 µM in each case.

`C[C@H]1CC[C@@H]2[C@@H](C)[C@H]3[C@H](C[C@H]4[C@@H]5CC=C6C[C@@H](O)CC[C@]6(C)[C@H]5CC[C@]34C)N2C1`: the TGI in the assay on UACC-257 melanoma, in the assay on SK-MEL-28 melanoma, with M14 melanoma, in the assay on NCI-H522 lung, in the assay with A549 NSCLC and in the assay on MALME-3M melanoma was greater than 100 µM in each case. In addition, the TGI in the assay on HOP-92 NSCLC was 58.3 µM; in the assay on PC-3 prostate it was greater than 100 µM; in the assay on KM12 colon it was greater than 100 µM; in the assay with UACC-62 melanoma it was greater than 100 µM.

With `COc1cc2c(=O)n(CC3CCCCC3)c3c4cc[nH]c4ncc3c2cc1OC`, the GI50 was 23.8 µM in the assay with UACC-257 melanoma; 7.25 µM with SK-MEL-28 melanoma; 4.3 µM with M14 melanoma; 1.34 µM in the assay on NCI-H522 lung; 5 µM in the assay on A549 NSCLC; 6.33 µM with MALME-3M melanoma. Besides, the GI50 was 0.137 µM in the assay on HOP-92 NSCLC, 2.23 µM with PC-3 prostate, 0.0362 µM in the assay on KM12 colon and 6.01 µM in the assay with UACC-62 melanoma. The TGI in the assay with UACC-257 melanoma is greater than 50 µM; in the assay with SK-MEL-28 melanoma, 31.2 µM; in the assay with M14 melanoma, greater than 50 µM; in the assay on NCI-H522 lung it was 18.3 µM; with A549 NSCLC, 16.9 µM; in the assay with MALME-3M melanoma it was 26.3 µM. Besides, the TGI was 2.78 µM in the assay on HOP-92 NSCLC, 12.2 µM with PC-3 prostate, 34.9 µM in the assay with KM12 colon and greater than 50 µM in the assay on UACC-62 melanoma.

Regarding `C[C@H]1CCC2C(OC(=O)[C@@H]2CN(C)C)[C@]2(C)C(=O)C=CC12O` (some centres undefined), the TGI with UACC-257 melanoma came to 23.6 µM; in the assay with SK-MEL-28 melanoma it was 8.35 µM; in the assay with M14 melanoma, 14.8 µM; with NCI-H522 lung, 3.13 µM; with A549 NSCLC it was 72.8 µM; in the assay with MALME-3M melanoma it was 16.7 µM. The TGI was 8.03 µM in the assay with HOP-92 NSCLC, 44.9 µM with PC-3 prostate, 15.1 µM in the assay with KM12 colon and 9.32 µM with UACC-62 melanoma.

As to `CNC(=O)c1cc(-c2ccc(F)cc2)cc(-c2ccc(S(=O)(=O)N3CCCC3)cc2)c1N`, the GI50 in the assay on UACC-257 melanoma was greater than 22.6 µM; with SK-MEL-28 melanoma, greater than 25 µM; in the assay with M14 melanoma, greater than 25 µM; in the assay with NCI-H522 lung, 22.3 µM; with A549 NSCLC, 11.9 µM; with MALME-3M melanoma, greater than 25 µM. Besides, the GI50 with HOP-92 NSCLC is 4.9 µM; in the assay with PC-3 prostate, 8.54 µM; in the assay with KM12 colon, 16.6 µM; in the assay on UACC-62 melanoma, greater than 23.1 µM. For the same molecule, the TGI in the assay with UACC-257 melanoma, in the assay on SK-MEL-28 melanoma, in the assay on M14 melanoma, with NCI-H522 lung, with A549 NSCLC and in the assay with MALME-3M melanoma was greater than 25 µM throughout. Also, the TGI in the assay with HOP-92 NSCLC, with PC-3 prostate, in the assay with KM12 colon and in the assay on UACC-62 melanoma was greater than 25 µM throughout.

In the case of `Cn1cc(-c2csc(-c3cn(C(=O)OC(C)(C)C)c4ccccc34)n2)c2cccnc21`, the GI50 was 8.97 µM in the assay on UACC-257 melanoma; 10.2 µM with SK-MEL-28 melanoma; 7.36 µM in the assay on M14 melanoma; 3.84 µM in the assay with NCI-H522 lung; 6.04 µM in the assay with A549 NSCLC; 14.6 µM with MALME-3M melanoma. Moreover, the GI50 was 3.81 µM with HOP-92 NSCLC, 4.89 µM in the assay with PC-3 prostate, 2.78 µM in the assay with KM12 colon and 7.8 µM with UACC-62 melanoma. Also, the TGI in the assay on UACC-257 melanoma came out at 23.6 µM; in the assay on SK-MEL-28 melanoma, 33.3 µM; in the assay with M14 melanoma it was 22.7 µM; in the assay with NCI-H522 lung, 25.4 µM; in the assay with A549 NSCLC it was 31.2 µM; with MALME-3M melanoma, 40.8 µM. The TGI worked out at 19.9 µM in the assay with HOP-92 NSCLC, 24.4 µM in the assay on PC-3 prostate, 9.57 µM with KM12 colon and 22.4 µM with UACC-62 melanoma.

`CS(=O)(=O)CCNCc1ccoc1-c1ccc2ncnc(Nc3ccc(OCc4ccccc4)cc3)c2c1`: the GI50 with UACC-257 melanoma, in the assay with SK-MEL-28 melanoma, in the assay with M14 melanoma, with NCI-H522 lung, in the assay on A549 NSCLC and in the assay with MALME-3M melanoma was greater than 25 µM throughout. The GI50 is 1.98 µM in the assay on HOP-92 NSCLC, greater than 25 µM with PC-3 prostate, greater than 25 µM in the assay on KM12 colon and greater than 25 µM with UACC-62 melanoma. For the same molecule, the TGI in the assay with UACC-257 melanoma, in the assay on SK-MEL-28 melanoma, in the assay with M14 melanoma, in the assay with NCI-H522 lung, in the assay on A549 NSCLC and in the assay with MALME-3M melanoma was greater than 25 µM throughout. In addition, the TGI with HOP-92 NSCLC, in the assay on PC-3 prostate, in the assay on KM12 colon and in the assay on UACC-62 melanoma was greater than 25 µM each time.
